# Results as given in patent US7223796B2, “Acyl-4-carboxyphenylurea derivatives, processes for preparing them and their use” (Sanofi-aventis Deutschland GmbH, priority 2002, dated 2007).
# Experiments:
# [1] = target: T1, Human glycogen phosphorylase a (Homo sapiens, UniProt P06737); test: Glycogen phosphorylase a activity test; format: biochemical; details: read-out: % inhibition at 10 μM; 10 μM test substance; GPa measured in reverse direction (glycogen synthesis from glucose 1-phosphate, phosphate release)
# T1 sequence (P06737 2-847 limits assumed): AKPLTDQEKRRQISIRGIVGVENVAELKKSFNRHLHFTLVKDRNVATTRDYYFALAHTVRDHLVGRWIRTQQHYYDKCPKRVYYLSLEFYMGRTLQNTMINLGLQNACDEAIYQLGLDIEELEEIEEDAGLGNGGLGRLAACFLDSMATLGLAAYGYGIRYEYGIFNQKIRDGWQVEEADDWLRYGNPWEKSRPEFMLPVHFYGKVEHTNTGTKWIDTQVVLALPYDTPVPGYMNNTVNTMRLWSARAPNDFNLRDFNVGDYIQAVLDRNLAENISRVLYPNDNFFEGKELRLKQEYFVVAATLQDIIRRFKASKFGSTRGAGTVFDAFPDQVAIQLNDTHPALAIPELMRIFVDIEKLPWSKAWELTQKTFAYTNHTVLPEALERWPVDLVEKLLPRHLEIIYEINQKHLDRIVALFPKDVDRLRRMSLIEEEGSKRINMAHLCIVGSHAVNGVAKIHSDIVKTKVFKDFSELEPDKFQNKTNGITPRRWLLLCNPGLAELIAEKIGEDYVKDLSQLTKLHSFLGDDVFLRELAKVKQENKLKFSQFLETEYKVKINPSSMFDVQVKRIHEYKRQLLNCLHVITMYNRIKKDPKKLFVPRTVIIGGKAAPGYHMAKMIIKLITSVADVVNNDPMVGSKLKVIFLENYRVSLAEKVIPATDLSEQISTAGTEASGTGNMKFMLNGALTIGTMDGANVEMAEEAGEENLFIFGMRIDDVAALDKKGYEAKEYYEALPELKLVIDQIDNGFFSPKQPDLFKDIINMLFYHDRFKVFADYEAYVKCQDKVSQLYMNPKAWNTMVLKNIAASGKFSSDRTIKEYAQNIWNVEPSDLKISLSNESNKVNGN
# Description: Glycogen Phosphorylase a Activity Test
# All the reactions were carried out as duplicate determinations in 96-well microtiter plates (Half Area Plates, Costar No. 3696), with the change in absorption due to the formation of the reaction product being measured, at the wavelength specified below, in a Multiscan Ascent Elisa Reader (Lab Systems, Finland). In order to measure the enzymic activity of GPa in the reverse direction, the conversion of glucose 1-phosphate into glycogen and inorganic phosphate was measured in accordance with the general method of Engers et al. (Engers H D, Shechosky S, Madsen N B, Can J Biochem 1970 July;48(7): 746–754) but with the following modifications: Human glycogen phosphorylase a (for example containing 0.76 mg of protein/ml (Aventis Pharma Deutschland GmbH), dissolved in buffer solution E (25 mM β-glycerophosphate, pH 7.0, 1 mM EDTA and 1 mM dithiothreitol), was diluted with buffer T (50 mM Hepes, pH 7.0, 100 mM KCl, 2.5 mM EDTA, 2.5 mM MgCl2.6H2O), and addition of 5 mg of glycogen/ml, to a concentration of 10 μg of protein/ml. […] The basal value of the activity of the glycogen phosphorylase a in the absence of test substance was determined by adding 10 μl of buffer solution T (0.1% DMSO). […] After 60 minutes of incubation at 45° C., the absorption was measured at 820 nm. […]
compound,measurement,setting,value
"O=C(NC(=O)c1cc(F)c(F)cc1Cl)Nc1ccc(C(=O)O)cc1OC(F)(F)F [Example 48, 4-[3-(2-Chloro-4,5-difluorobenzoyl)ureido]-3-trifluoromethoxybenzoic acid]",inhibition at 10 µM,[1],99%
same,melting point,,236 °C
